# Test results from patent US20130230586A1, “Treatment of Tinnitus and Related Auditory Dysfunctions” (LINK RESEARCH & GRANTS CORPORATION, priority 2010, published 2013).
# Columns and labels:
# [1] = Method: In the initial tests as reported in PCT/IB2010/051373 tablets were administered three times daily.
# Four selected outcome variables were used in this preliminary analysis: Global improvement (GI), Tinnitus Handicap Inventory (THI) and Tinnitus Impairment Questionnaire (TBF 12) questionnaires and Minimum Masking Levels (MML). The changes on the outcome variables were obtained by subtracting week 12's scores from the screening scores. The presence of a negative result means a decrease on values.
# In Table 2 the changes on outcome variables are listed by Global Improvement (GI) classification, as follows: GI 1=much better; 2=better; 3=slightly better; 4=no change; 5=slightly worse; 6=worse; 7=much worse; THI: Tinnitus Handicap Inventory, TBF 12: Tinnitus Impairment Questionnaire; MML: minimal masking levels, measured in dB HL (Hearing Level).
# Four different criteria were established to determine whether a subject responded or not to treatment (see Table 3).
# [2] = 10 to 40 mg over a 12 week period; 120 fibromyalgia patients; cited from earlier work
structure (smiles),measurement,setting,value
CN(C)CCC=C1c2ccccc2C=Cc2ccccc21 [Cyclobenzaprine],Responders n,[1]; Criteria 2: Criteria 1 + decrease on THI,11
same,Tolerability,[1]; common side effects like constipation and dry mouth may be experienced,tolerated well by most subjects
same,Number of subjects Better or Much Better on GI,"[1]; of 15 subjects, FIG. 1",8 subjects
same,"Number of subjects Slightly Better, Better or Much Better on GI","[1]; of 15 subjects, FIG. 1",11 subjects
same,Number of subjects with changes on tinnitus pitch,[1]; out of 15 subjects,5 subjects
same,Remark in place of MML change (intermittent tinnitus),"[1]; subject 3, MML not possible to measure",change on intensity and less episodes
same,Trial suspension due to side effects,[1]; subject 6,Trial suspended because of side effects
same,Course of Minimum Masking Levels (MML) during the tests,"[1]; subjects 4, 8, 9, 10 and 11, FIGS. 2-6",progressive reduction
same,Effect on tinnitus severity and tinnitus loudness,[1]; tested subjects,positive effect
same,Safety of administration,[1]; tested subjects,safe to administer
same,Quality of sleep and pain score,[2],significantly improved
same,Total number of tender points and muscle tightness,[2],reduction
